The target in this test is T1, Trib2-Luciferase (Luc-Trib2) fusion (Homo sapiens, UniProt Q92519).
T1 sequence (Q92519 with tags, fused parts or gaps): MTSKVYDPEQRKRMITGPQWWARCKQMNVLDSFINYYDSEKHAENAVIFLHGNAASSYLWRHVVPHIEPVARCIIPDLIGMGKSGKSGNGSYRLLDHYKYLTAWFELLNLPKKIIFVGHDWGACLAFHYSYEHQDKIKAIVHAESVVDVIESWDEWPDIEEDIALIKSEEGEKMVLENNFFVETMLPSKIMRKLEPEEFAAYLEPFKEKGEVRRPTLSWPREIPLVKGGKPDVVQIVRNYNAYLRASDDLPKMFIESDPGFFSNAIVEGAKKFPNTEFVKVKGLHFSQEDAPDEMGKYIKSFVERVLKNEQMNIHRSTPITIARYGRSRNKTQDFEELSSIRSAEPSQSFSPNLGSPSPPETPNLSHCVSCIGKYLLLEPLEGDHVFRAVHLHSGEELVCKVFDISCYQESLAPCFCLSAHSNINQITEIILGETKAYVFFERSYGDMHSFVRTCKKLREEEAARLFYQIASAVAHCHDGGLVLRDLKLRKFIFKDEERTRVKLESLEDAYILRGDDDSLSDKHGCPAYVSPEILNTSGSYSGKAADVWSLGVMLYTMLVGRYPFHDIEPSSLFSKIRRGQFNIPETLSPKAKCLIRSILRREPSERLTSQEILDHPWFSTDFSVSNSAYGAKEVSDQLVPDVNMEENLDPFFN
The test is described as follows: cell-based. The settings on record: HFF, read-out: Luciferase activity (%).

As for `CN1CCC(=C2c3ccccc3CCn3c(C=O)cnc32)CC1` [Alcaftadine], the activity at 10 µM came to 100%. The value for `C=CCc1ccccc1OCC(O)CNC(C)C` (stereo not drawn) [Alprenolol] was 91%; that for `CCOC(=O)OC(C)OC1=C(C(=O)Nc2ccccn2)N(C)S(=O)(=O)c2ccccc21` (stereo not drawn) [Ampiroxicam] was 28%; that for `O=C1CN2Cc3c(ccc(Cl)c3Cl)N=C2N1` [Anagrelide] was 92%. Turning to `CN1[C@@H]2CC[C@H]1C[C@@H](OC(=O)C(CO)c1ccccc1)C2` (stereo partly drawn) [Atropine], the activity at 10 µM was found to be 67%.

Turning to `CN1C(=O)COc2c(C(=O)NC3CN4CCC3CC4)cc(Cl)cc21` (stereo not drawn) [Azasetron], the activity at 10 µM is 100%.

Consider `O=C(O)CCNC(=O)c1ccccc1` [Betamipron], for which the activity at 10 µM is 87%.

For `CCCC1O[C@@H]2C[C@H]3[C@@H]4CCC5=CC(=O)C=C[C@]5(C)[C@H]4[C@@H](O)C[C@]3(C)[C@]2(C(=O)CO)O1` (stereo partly drawn) [Budesonide], the activity at 10 µM was 83%. Turning to `CS(=O)(=O)OCCCCOS(C)(=O)=O` [Busulfan], the activity at 10 µM was 100%. As for `C[C@@](Cc1ccc(O)c(O)c1)(NN)C(=O)O` [Carbidopa], the activity at 10 µM was 92%. As to `O=C(O)CCCc1ccc(N(CCCl)CCCl)cc1` [Chlorambucil], the activity at 10 µM was 96%.

As for `CC[C@H]1OC(=O)[C@H](C)[C@@H](O[C@H]2C[C@@](C)(OC)[C@@H](O)[C@H](C)O2)[C@H](C)[C@@H](O[C@@H]2O[C@H](C)C[C@H](N(C)C)[C@H]2O)[C@](C)(OC)C[C@@H](C)C(=O)[C@H](C)[C@@H](O)[C@]1(C)O` [Clarithromycin], the activity at 10 µM was found to be 97%. `COc1cc(N)c(Cl)cc1C(=O)NC1CCN(Cc2ccccc2)CC1` [Clebopride]: the activity at 10 µM turned out to be 100%. As for `CC(C)(Oc1ccc(Cl)cc1)C(=O)O` [Clofibric acid], the activity at 10 µM turned out to be 87%. With `O=C(O)c1cc(=O)c2c(OCC(O)COc3cccc4oc(C(=O)O)cc(=O)c34)cccc2o1` [Cromolyn] the figure was 93%; with `CC(C)(C)c1nc(-c2cccc(NS(=O)(=O)c3c(F)cccc3F)c2F)c(-c2ccnc(N)n2)s1` [Dabrafenib], 72%. With `CN1C[C@@H]2C[C@H]1CN2c1cc2c(cc1F)c(=O)c(C(=O)O)cn2C1CC1` [Danofloxacin] the figure was 81%; with `CN(C)[C@@H](CCOc1cccc2ccccc12)c1ccccc1` [Dapoxetine], 88%. The value for `C[C@@H](CN1CC(=O)NC(=O)C1)N1CC(=O)NC(=O)C1` [Dexrazoxane] was 100%; that for `OCCN(CCO)c1nc(N2CCCCC2)c2nc(N(CCO)CCO)nc(N3CCCCC3)c2n1` [Dipyridamole] was 98%. Consider `CC[C@H]1OC(=O)[C@H](C)[C@@H](O[C@H]2C[C@@](C)(OC)[C@@H](O)[C@H](C)O2)[C@H](C)[C@@H](O[C@@H]2O[C@H](C)C[C@H](N(C)C)[C@H]2O)[C@](C)(O)C[C@@H](C)[C@@H]2N[C@@H](COCCOC)O[C@H]([C@H]2C)[C@]1(C)O` [Dirithromycin], for which the activity at 10 µM came to 100%. The value for `COc1cccc2c1C(=O)c1c(O)c3c(c(O)c1C2=O)C[C@@](O)(C(=O)CO)C[C@@H]3O[C@H]1C[C@H](N)[C@H](O)[C@H](C)O1` [Doxorubicin] was 28%; that for `C[C@H]1c2cccc(O)c2C(=O)C2=C(O)[C@]3(O)C(=O)C(C(N)=O)=C(O)[C@@H](N(C)C)[C@@H]3[C@@H](O)[C@@H]21` [Doxycycline] was 91%. The value for `O=C(CCCN1CC=C(n2c(=O)[nH]c3ccccc32)CC1)c1ccc(F)cc1` [Droperidol] was 100%; that for `O=C1Nc2ccc(Cl)cc2[C@@](C#CC2CC2)(C(F)(F)F)O1` [Efavirenz] was 89%; that for `CC1=C(C(=O)OCCN(Cc2ccccc2)c2ccccc2)C(c2cccc([N+](=O)[O-])c2)C(P2(=O)OCC(C)(C)CO2)=C(C)N1` (stereo not drawn) [Efonidipine] was 98%. With `CC(/C=C1\SC(=S)N(CC(=O)O)C1=O)=C\c1ccccc1` [Epalrestat] the figure was 53%.

(Values after patent publication US12721838B2 (Henry Ford Health System, priority 2020, dated 2026).)
